Experimental data published in patent US20190002480A1, “Silane-Containing Heterocyclic Compounds and Methods of Use Thereof for the Treatment of Viral Diseases” (Merck Sharp & Dohme Corp., priority 2015, published 2019).
Where two headings read alike, the source gives them in different places.

Assays:
HCV replicon GT1a_L31V = assay: Cell-based HCV replicon assay, GT1a L31V; details: Hepatitis C virus, 72 h, read-out: GT1a_L31V EC90
Experimental: (§1) To measure cell-based anti-HCV activity of compounds of the present invention, two complimentary assays were employed using various replicons. In the first assay (“Replicon Assay A”), replicon cells were seeded at 2000 cells/well in 384-well 384-well flat bottom tissue culture treated clear bottom plate (Corning 3707) in the presence of the test compound. Various concentrations of test compound, typically in 10 serial dilutions, were added to the assay mixture, with the starting concentration ranging from 333.3 nM to […]. The final concentration of DMSO was 0.5%. Fetal bovine serum was 5%, in the assay media. Cells were harvested on day 3 by removing media and washing the cells with a suitable wash buffer. The cells are lysed with the addition of 1× Qiagen lysis buffer (Cat #1062731). The replicon RNA level was measured using real time PCR (TaqMan® EZ RT-PCR, Applied Biosystems 403028) with the following primers and probes: […]
(§2) Cyclophilin RNA was used as endogenous control and was amplified in the same reaction as NS5B (multiplex PCR). The real-time RT-PCR reactions were run on ABI PRISM 7900HT Sequence Detection System using the following program: 50° C. for 2 minutes, 60° C. for 30 minutes, 95° C. for 5 minutes, 40 cycles of 94 C for 20 sec, 55 C for 1 minutes.
(§3) The amount of HCV replicon RNA per cell is quantified using a linear regression curve for a known nanogram (ng) amount of HCV replicon total RNA. This is established by plotting the Cycle Threshold values (Ct) from the Neo probe and primer set versus the log (ng) for each HCV replicon total RNA standard. The amount of HCV RNA for each replicon sample is calculated by taking the sample's Ct value, minus the line intercept, divided by the slope of the line. Similarly, the amount of Cyclophilin mRNA per cell is also quantified using a linear regression curve for a known nanogram (ng) amount of HCV replicon total RNA. Again, this is established by plotting the Cycle Threshold values (Ct) from the Cyclophilin probe and primer set versus the log (ng) for each HCV replicon total RNA standard.
(§4) In an alternate assay (“Replicon Assay B”), 1000 cells were seeded per well in a 384-well collagen coated black plate from Greiner bio-one (Cat #781946) in 5% FBS. Inhibitors of this invention were added at 24 h post-seeding, and the plates were incubated for 3 days. Cells were subsequently lysed with Qiagen lysis buffer (Cat #1062731) to extract the RNA. HCV replicon RNA level was measured by real-time PCR using the RNA-to-CT kit from Applied Biosystem (Cat #4392656) and genotype-specific primers and probes. The amplicon was located within NS5B. The sequence of the PCR primers are as follows: 5B.2F, ATGGACAGGCGCCCTGA (SEQ. ID NO. 1); 5B.2R, […] (SEQ. ID NO. 2); the probe sequence was FAM-labeled CACGCCATGCGCTGCGG (SEQ. ID NO. 3). To detect genotype 1A the primer 1A F, TGCGGAACCGGTGAGTACA and 1A R, […] were used; the probe sequence was FAM-[…].
(§5) The real-time RT-PCR reactions were run on ABI PRISM 7900HT or Viia7 Sequence Detection System using the following program: 48° C. for 30 minutes, 95 C for 10 minutes, 40 cycles of 95 C for 15 sec, 60 C for 1 minutes. The 50% effective concentration (EC50) was the drug concentration necessary to achieve an increase in the cycle threshold (CT) of 1 over the projected baseline CT. The EC90 was the drug concentration necessary to achieve an increase in CT of 3.2 over the projected baseline CT.

HCV replicon GT2b_31M = assay: Cell-based HCV replicon assay, GT2b 31M; details: Hepatitis C virus, 72 h, read-out: GT2b_31M EC90
Experimental: as §1, §2, §3, §4, §5

HCV replicon GT1a_Q30R = assay: Cell-based HCV replicon assay, GT1a Q30R; details: Hepatitis C virus, 72 h, read-out: GT1a_Q30R EC90
Experimental: as §1, §2, §3, §4, §5

HCV replicon GT6 = assay: Cell-based HCV replicon assay, GT6; details: Hepatitis C virus, GT6, 72 h; replicon RNA level by real-time PCR, 3 days
Experimental: as §1, §2, §3, §4, §5

HCV replicon GT1b_WT = assay: Cell-based HCV replicon assay, GT1b WT; details: Hepatitis C virus, 72 h, read-out: GT1b_WT EC90
Experimental: as §1, §2, §3, §4, §5

HCV replicon GT5 = assay: Cell-based HCV replicon assay, GT5; details: Hepatitis C virus, GT5, 72 h; replicon RNA level by real-time PCR, 3 days
Experimental: as §1, §2, §3, §4, §5

HCV replicon GT1a_Y93H = assay: Cell-based HCV replicon assay, GT1a Y93H; details: Hepatitis C virus, 72 h, read-out: GT1a_Y93H EC90
Experimental: as §1, §2, §3, §4, §5

HCV replicon GT3a_WT = assay: Cell-based HCV replicon assay, GT3a WT; details: Hepatitis C virus, 72 h; replicon RNA level by real-time PCR, 3 days
Experimental: as §1, §2, §3, §4, §5

HCV replicon GT3a_Y93H = assay: Cell-based HCV replicon assay, GT3a Y93H; details: Hepatitis C virus, 72 h, read-out: GT3a_Y93H EC90
Experimental: as §1, §2, §3, §4, §5

HCV replicon GT4 = assay: Cell-based HCV replicon assay, GT4; details: Hepatitis C virus, GT4, 72 h; replicon RNA level by real-time PCR, 3 days
Experimental: as §1, §2, §3, §4, §5

HCV replicon GT2a = assay: Cell-based HCV replicon assay, GT2a; details: Hepatitis C virus, 72 h, read-out: GT2a EC90
Experimental: as §1, §2, §3, §4, §5

[1] = replicon RNA level by real-time PCR, 3 days

SMILES | EC90 (HCV replicon GT1a_L31V) [nM] | EC90 (HCV replicon GT2b_31M) [nM] | EC90 (HCV replicon GT1a_Q30R) [nM] | EC90 (HCV replicon GT6) [nM] | EC90 (HCV replicon GT1b_WT; [1]) [nM] | EC90 (HCV replicon GT5) [nM] | EC90 (HCV replicon GT1a_Y93H) [nM] | EC90 (HCV replicon GT3a_WT) [nM] | EC90 (HCV replicon GT3a_Y93H) [nM] | EC90 (HCV replicon GT4) [nM] | EC90 (HCV replicon GT1b_WT) [nM] | EC90 (HCV replicon GT2a) [nM] | EC90 (HCV replicon GT2a; [1]) [nM]
CNC(C(=O)N1C[Si](C)(C)C[C@H]1c1ncc(-c2ccc3c(c2)cc2n3[C@H](c3cnc(C4CC4)s3)Oc3cc(-c4cnc([C@@H]5CCCN5C(=O)[C@@H](NC(=O)OC)C(C)C)[nH]4)cc(F)c3-2)[nH]1)c1ccccc1 (some centres unmarked) [Compound 5] | 0.0359 | 0.378 | 0.0155 | 0.0088 | 0.0021 | 0.0086 | 0.33 | 0.257 | 110 | – | – | – | –
COC(=O)N[C@H](C(=O)N1CCC[C@H]1c1ncc(-c2cc(F)c3c(c2)O[C@@H](c2ccc(C4CC4)s2)n2c-3cc3cc(-c4cnc([C@@H]5C[Si](C)(C)CN5C(=O)[C@@H](NC(=O)OC)[C@@H]5CCOC(C)(C)C5)[nH]4)ccc32)[nH]1)C(C)C [Compound 15] | 0.0075 | 0.314 | 0.0047 | 0.0144 | – | 0.0065 | 0.185 | 0.173 | 442 | 0.00136 | 0.00102 | 0.0021 | –
COC(=O)NC(C(=O)N1CCC[C@H]1c1ncc(-c2ccc3c(c2)cc2n3[C@H](c3cnc(C4CC4)s3)Oc3cc(-c4cnc([C@@H]5C[Si](C)(C)CN5C(=O)[C@@H](NC(=O)OC)C5CCCCC5)[nH]4)cc(F)c3-2)[nH]1)C(C)C (some centres unmarked) [Compound 7] | 0.0045 | 0.132 | 0.0039 | 0.0906 | – | 0.0246 | 0.022 | 0.051 | 82 | 0.00147 | 0.00244 | 0.00177 | –
COC(=O)NC(C(=O)N1CCC[C@H]1c1ncc(-c2ccc3c(c2)cc2n3[C@H](c3cnc(C4CC4)s3)Oc3cc(-c4cnc([C@@H]5C[Si](C)(C)CN5C(=O)[C@@H](NC(=O)OC)[C@@H]5CCOC(C)(C)C5)[nH]4)cc(F)c3-2)[nH]1)C(C)C (some centres unmarked) [Compound 8] | 0.0088 | 1.12 | 0.0056 | 0.0079 | – | 0.0072 | 0.271 | 0.709 | 133 | 0.00103 | – | 0.00118 | –
COC(=O)NC(C(=O)N1C[Si](C)(C)C[C@H]1c1ncc(-c2ccc3c(c2)cc2n3[C@H](c3ccc(C4CC4)s3)Oc3cc(-c4cnc([C@@H]5CCCN5C(=O)[C@@H](NC(=O)OC)C(C)C)[nH]4)cc(F)c3-2)[nH]1)C1CCC(F)(F)CC1 (some centres unmarked) [Compound 16] | 0.0507 | 2.83 | 0.0285 | 0.0252 | – | 0.0173 | 0.972 | 1.68 | 3690 | 0.00183 | 0.00184 | 0.00575 | –
COC(=O)NC(C(=O)N1C[Si](C)(C)C[C@H]1c1ncc(-c2ccc3c(c2)cc2n3[C@H](c3cnc(C4CC4)s3)Oc3cc(-c4cnc([C@@H]5CCCN5C(=O)[C@@H](NC(=O)OC)C(C)C)[nH]4)cc(F)c3-2)[nH]1)C1CCOCC1 (some centres unmarked) [Compound 2] | 0.003 | 0.231 | 0.0043 | 0.0044 | – | 0.0041 | 0.062 | 0.17 | 168 | – | – | – | –
COC(=O)NC(C(=O)N1CCC[C@H]1c1ncc(-c2ccc3c(c2)cc2n3[C@H](c3cnc(C4CC4)s3)Oc3cc(-c4cnc([C@@H]5C[Si](C)(C)CN5C(=O)[C@H](N)c5ccccc5)[nH]4)cc(F)c3-2)[nH]1)C(C)C (some centres unmarked) [Compound 10] | 0.859 | 12 | 0.387 | 0.008 | 0.00142 | 0.0139 | 4.28 | 5.48 | 126 | – | – | – | 0.00246
COC(=O)N[C@H](C(=O)N1CCC[C@H]1c1ncc(-c2cc(F)c3c(c2)O[C@@H](c2cnc(C4CC4)s2)n2c-3cc3cc(-c4cnc([C@@H]5C[Si](C)(C)CN5C(=O)[C@@H](NC(=O)OC)C(C)C)[nH]4)ccc32)[nH]1)C(C)C [Compound 1] | 0.0568 | 2.43 | 0.0193 | 0.0059 | – | 0.0056 | 0.231 | 1.77 | 393 | – | – | 0.00278 | –
COC(=O)N[C@H](C(=O)N1CCC[C@H]1c1ncc(-c2cc(F)c3c(c2)O[C@@H](c2cnc(C4CC4)s2)n2c-3cc3cc(-c4cnc([C@@H]5C[Si](C)(C)CN5C(=O)C(N)c5ccccc5)[nH]4)ccc32)[nH]1)C(C)C (some centres unmarked) [Compound 12] | 0.149 | 0.061 | 0.0776 | 0.0863 | 0.00141 | 0.0144 | 0.334 | 0.036 | 155 | – | – | – | 0.00152
CNC(C(=O)N1C[Si](C)(C)C[C@H]1c1ncc(-c2ccc3c(c2)cc2n3[C@H](c3ccc(C4CC4)s3)Oc3cc(-c4cnc([C@@H]5CCCN5C(=O)[C@@H](NC(=O)OC)C(C)C)[nH]4)cc(F)c3-2)[nH]1)c1ccccc1 (some centres unmarked) [Compound 19] | 0.0106 | 0.092 | 0.0053 | 0.0047 | – | 0.0048 | 0.219 | 0.056 | 109 | – | – | – | –
COC(=O)N[C@H](C(=O)N1CCC[C@H]1c1ncc(-c2cc(F)c3c(c2)O[C@@H](c2ccc(C4CC4)s2)n2c-3cc3cc(-c4cnc([C@@H]5C[Si](C)(C)CN5C(=O)[C@@H](N)c5ccccc5)[nH]4)ccc32)[nH]1)C(C)C [Compound 18] | 0.0681 | 0.062 | 0.0372 | 0.0084 | 0.00111 | 0.0068 | 1.22 | 0.027 | 206 | – | – | – | –
CN[C@@H](C(=O)N1C[Si](C)(C)C[C@H]1c1ncc(-c2cc(F)c3c(c2)O[C@@H](c2cnc(C4CC4)s2)n2c-3cc3cc(-c4cnc([C@@H]5CCCN5C(=O)C(NC(=O)OC)C(C)C)[nH]4)ccc32)[nH]1)c1ccccc1 (some centres unmarked) [Compound 11] | 0.0963 | 0.705 | 0.0318 | 0.0066 | 0.00154 | 0.0098 | 0.933 | 0.347 | 74 | – | – | – | 0.001
